Four compounds from publication PMC11200585, “Prospects for Prostate Cancer Chemotherapy: Cytotoxic Evaluation and Mechanistic Insights of Quinolinequinones with ADME/PK Profile” (Biomedicines, 2024) can be followed below.

A value given as a limit tells only on which side of the number the result lay.

For one data set, the system named is HS 578T. As to the kind of experiment: NCI-60 one-dose screen (breast cancer). It counts as cell-based, human. The settings on record: 10 µM single dose; for GP (growth percentage): 48 h.
A further data set has as its system MCF7. The data set can be described thus: NCI-60 one-dose screen (breast cancer). Type of data set: cell-based, human. To be noted: 10 µM single dose, 48 h.
The next data set relates to MDA-MB-231/ATCC. As to the kind of experiment: NCI-60 one-dose screen (breast cancer). Type of data set: cell-based, human. The settings on record: 10 µM single dose, 48 h.
Another data set relates to MDA-MB-468. As to the kind of experiment: NCI-60 one-dose screen (breast cancer). Type of data set: cell-based, human. To be noted: 10 µM single dose, 48 h.
For the next data set, the system named is T-47D. The data set can be described thus: NCI-60 one-dose screen (breast cancer). It counts as cell-based, human. The settings on record: 10 µM single dose, 48 h.
Data set [1] is described as follows: Log D (experimental, n-octanol). To be noted: n-octanol (aqueous phase not stated). It counts as physicochemical.
Data set [2] in a line: In vitro metabolic stability. Type of data set: in vitro ADME, dog (Beagle). To be noted: Dog liver microsomes; for % Metabolism in 30 min: 0.5 µM, 0.5 mg/mL protein; for half-life at 0.5 µM / microsomal CLint at 0.5 µM: male, Beagle, pH 7.4. The procedure:
(§1) S2. ADME and PK Profiling
(§2) S2.1. In vitro Metabolic Stability Study […]
(§3) metabolic stability of AQQ1 and AQQ2. A final protein (liver microsomal) concentration of 0.5 mg/mL and final test substance (AQQ1 and AQQ2) concentration of 0.5 µM were used for the study. To the respective microsomes at a volume of 12.5 µL in the well, 2.5 µL of test substance ([…] in acetonitrile: dimethyl sulfoxide, 96:4) in the presence and absence of NADPH (50 µL, 10 mM) were added and the final volume made up to 500 µL with sodium phosphate buffer (50 mM, pH 7.4). The one without NADPH served as control. Sampling (50 µL) were done at the following time points: 0, 5, 10, 15, and 30 min for sample and at 0 and 30 min for control.
(§4) Acetonitrile (150 µL) was used as quenching solvent, internal standard (Rolipram) was added, vortexed/centrifuged and the aliquot from the supernatant was analyzed using LC-MS/MS. All the experiments were performed in duplicate.
For orientation: Liver microsomes are vesicles of endoplasmic reticulum, rich in cytochrome P450 enzymes.

A short description of data set [3]: In vitro metabolic stability. Type of data set: in vitro ADME. To be noted: for % Metabolism in 30 min: 0.5 µM, 0.5 mg/mL protein; for half-life at 0.5 µM / microsomal CLint at 0.5 µM: pH 7.4. The protocol:
as §1, §2, §3, §4

Data set [4] is described as follows: In vivo bioavailability / pharmacokinetic study IV and PO. On the set-up: species or system male Sprague-Dawley rats. To be noted: rat; for AUC(0-inf) / AUC(0-t) / C0 / MRT last / Vd / clearance / half-life / Cmax / Tmax: male, Sprague-Dawley, whole blood; for Tmax: median. The procedure:
Using the validated Phoenix® WinNonlin® 8.3 NCA tool Version 8 or higher (Certara L.P.), USA, pharmacokinetic parameters were computed. As appropriate, Cmax, Tmax, and exposures (AUCinfinity and AUClast) were calculated. Furthermore, pharmacokinetic characteristics such as distribution volume (Vd), […] (CL), elimination half-life (T1/2), and parenteral route like (C0) were evaluated. Using dose-normalized non-intravenous exposure versus dose-normalized intravenous exposure, oral bioavailability (F%) was computed (Table 5).
S2.2. In vivo Bioavailability Study of AQQ1 and AQQ2 in Male Sprague-Dawley Rats Sprague-Dawley rats (HyLasco Biotechnology (India) Pvt. Ltd., a subsidiary of Charles River from the US) of 8-12 weeks of age (at the time of treatment), weighing between 220 and 320 g, […]
Housing: Animals were housed in polysulfonate cages in a typical research laboratory environment at 25 ± 3°C and 50%-70% relative humidity with approximately 12 h light and dark cycles maintained with an enrichment device. During the study, the animals had access to a rat maintenance diet (Altromin Spezialfutter GmbH, Germany) and purified water (UV-treated, […]
Animal experiments were conducted in accordance with the guidelines of the Committee for the Purpose of Control and Supervision of Experiments on Animals (CPCSEA), Ministry of […], Government of India, and approved by the Institutional Animal Ethics Co m m i tt e e . […] AQQ1 a n d AQQ2 in NMP (10%) + PBS (pH 7.4) qs was administered intravenously at a dose of 1 mg/kg bw (10 mL/kg). AQQ1 and AQQ2 in NMP (10%) + Cremophor EL (5%) + PEG400 (30%) + PG (20%) + PBS (pH 7.4) qs was administered PO at a dose of 5 mg/kg bw (10 mL/kg). The animal weight on the day of dosing was used to calculate the required volume of the formulation and administered to the rats.
After dosing, blood samples (~0.250 mL) were collected from the jugular vein at the following time points: 0.083 (IV only), 0.25, 0.5, 1, 2, 4, 6, 8, and 24 h using a serial sampling design (equal volumes of heparinized saline were replaced after each sample collection). The samples were collected in pre-labeled microcentrifuge tubes containing K2EDTA (20 μL of 200 mM solution […]
per mL of blood) as an anticoagulant. The blood samples were stored at -60°C until bioanalysis using the fit-for-purpose LC-MS/MS method. Pharmacokinetic parameters were calculated using the non-compartmental analysis (NCA) tool of the validated Phoenix® WinNonlin® 8.3.
Group Treatment/Route Dose (mg/kg) Dose volume (mL/kg) Stregth

For orientation: logD means the decadic logarithm of the distribution of all forms, ionised or not, between an organic phase and buffer at a given pH. Broadly, the half-life is how long it takes for the measured level to halve. Lower therefore signals fast loss. What is called microsomal CLint is the capacity of the preparation to metabolise the compound, expressed as a volume cleared per time. A high value points to faster metabolism. Broadly, the AUC(0-inf) is the area under the concentration-time curve extrapolated to infinity. Read a low AUC(0-inf) as low exposure. In general, AUC(0-t) refers to the area under the concentration-time curve up to a stated or last time point. As usually defined, the MRT last is the average time that molecules of a dose stay in the body. In general, Cmax refers to the highest concentration seen after dosing. What is called Tmax is the time at which the peak concentration occurs. `COc1ccccc1NC1=C(Cl)C(=O)c2nc(C)ccc2C1=O` [AQQ1]: in the data set with HS 578T, the “GP (growth percentage)” value was determined as 72.15%. Also, the “GP (growth percentage)” value with MCF7 is on record as −60.38%. Moreover, the “GP (growth percentage)” value with MDA-MB-231/ATCC was −57.30%. Besides, the “GP (growth percentage)” value in the data set on MDA-MB-468 is −79.74%. The “GP (growth percentage)” value in the data set with T-47D was −44.73%. The logD in data set [1] turned out to be 2.37. Moreover, in data set [2], the “% Metabolism in 30 min” value is listed as 41.5%, the half-life at 0.5 µM is 0.517 h and the microsomal CLint at 0.5 µM came to 45 µL/min/mg. Further, in data set [3] (Human liver microsomes), the “% Metabolism in 30 min” value is on record as 39.5%, the half-life at 0.5 µM is > 0.5 h and the microsomal CLint at 0.5 µM is 39 µL/min/mg. Further, in data set [3] (Mouse liver microsomes), the “% Metabolism in 30 min” value stood at 63%, the half-life at 0.5 µM is 0.342 h and the microsomal CLint at 0.5 µM was found to be 68.5 µL/min/mg. In data set [4] (IV 1 mg/kg), the AUC(0-inf) was 115 ± 45.7 ng·h/mL, the AUC(0-t) turned out to be 77.5 ± 9.81 ng·h/mL, the C0 was 90.8 ± 71.3 ng/mL and the MRT last was found to be 3.77 ± 0.279 h. Further, in data set [4] (IV 1 mg/kg), the Vd stood at 90.3 ± 40 L/kg, the clearance amounted to 161 ± 62.9 mL/min/kg, the half-life is 9.35 ± 8.75 h and the “plasma clearance relative to normal hepatic blood flow of rats” value was “approximately 2.93 fold”. For the same compound, in [4] (PO 5 mg/kg), the AUC(0-inf) was determined as 4000 ± 179 ng·h/mL, the AUC(0-t) worked out at 3810 ± 111 ng·h/mL, the highest level (Cmax) was 435 ± 18.1 ng/mL and the MRT last amounted to 7.47 ± 0.367 h. Besides, in data set [4] (PO 5 mg/kg), the half-life was 5.22 ± 0.843 h and the Tmax came to 0.5 h.
In general, inhibition refers to how much of the control response was suppressed. Higher therefore signals strong suppression. Consider `CCOc1ccccc1NC1=C(Cl)C(=O)c2nc(C)ccc2C1=O` [AQQ2], for which the “GP (growth percentage)” value in the data set with HS 578T is reported as 1.05%. Testing at 10 µM in the data set on HS 578T (Homo sapiens) gave an inhibition of 99%. The “GP (growth percentage)” value in the data set on MCF7 was −59.68%. Moreover, the “GP (growth percentage)” value in the data set on MDA-MB-231/ATCC is on record as −63.63%. The “GP (growth percentage)” value in the data set on MDA-MB-468 is reported as −90.72%. In addition, the “GP (growth percentage)” value in the data set on T-47D is −40.00%. In addition, in data set [1], the logD amounted to 2.35. In data set [2], the “% Metabolism in 30 min” value came to 79.5%, the half-life at 0.5 µM is 0.283 h and the microsomal CLint at 0.5 µM turned out to be 84 µL/min/mg. Further, in data set [3] (Human liver microsomes), the “% Metabolism in 30 min” value is given as 47%, the half-life at 0.5 µM turned out to be 0.442 h and the microsomal CLint at 0.5 µM was found to be 52 µL/min/mg. Moreover, in data set [3] (Mouse liver microsomes), the “% Metabolism in 30 min” value was 96.5%, the half-life at 0.5 µM was found to be 0.0917 h and the microsomal CLint at 0.5 µM was found to be 249 µL/min/mg. In addition, in [4] (IV 1 mg/kg), the total exposure AUC(0-inf) was 110 ± 18.1 ng·h/mL, the AUC(0-t) was 77 ± 21 ng·h/mL, the C0 amounted to 23.2 ± 12.8 ng/mL and the mean residence time MRT last was 6.84 ± 1.84 h. Besides, in [4] (IV 1 mg/kg), the Vd was found to be 147 ± 9.71 L/kg, the clearance came out at 154 ± 26.9 mL/min/kg, the half-life is 12.8 ± 2.95 h and the “plasma clearance relative to normal hepatic blood flow of rats” value is on record as “approximately 2.8 fold”. Further, the “volume of distribution relative to 0.7 L/kg total body fluids” value in [4] (IV 1 mg/kg) is recorded as “approximately 210 fold”. For the same compound, in data set [4] (PO 5 mg/kg), the AUC(0-inf) was found to be 2370 ± 375 ng·h/mL, the AUC(0-t) was 2300 ± 416 ng·h/mL, the Cmax stood at 282 ± 79.4 ng/mL and the MRT last came to 6.61 ± 0.787 h. For the same compound, in [4] (PO 5 mg/kg), the half-life is 4.72 ± 1.16 h and the time to peak (Tmax) stood at 1 h.
As to `CCOc1ccc(NC2=C(Cl)C(=O)c3nc(C)ccc3C2=O)cc1` [AQQ3], the “GP (growth percentage)” value in the data set on HS 578T was 48.97%; in the data set with MCF7, −66.97%; in the data set with MDA-MB-231/ATCC, −71.74%; with MDA-MB-468 it was −95.15%; with T-47D, −43.85%.
The corresponding values for `COc1cc(NC2=C(Cl)C(=O)c3nc(C)ccc3C2=O)cc(OC)c1` [AQQ5] are −32.78%, −51.73%, −28.56%, −78.49% and −56.01%.
